This note sets out measurements from patent US4942159A, “Cephem compounds, their production and use” (Takeda Chemical Industries, Ltd., priority 1987, dated 1990).

≈ marks a conversion by molar mass, not a printed value. Where “and” joins values, the source holds several entries; their conditions need not be identical. Equal values may be shown once.

For data set [1], the system named is Staphylococcus aureus 1840. Put plainly: MIC by agar dilution method (Trypticase soy agar), Staphylococcus aureus 1840. Type of data set: cell-based. To be noted: (2) Staphylococcus aureus 1840, 37° C. overnight. How it is done:
(§1) The MIC of each test compound (the compounds obtained in Examples 1 and 2) was determined by the agar dilution method. Thus, 1.0 ml aliquots of serial dilutions of the test compound in water were poured into petri dishes, and 9.0 ml of Trypticase soy agar is added to each dish and stirred. A suspension (about 10^8 CFU/ml) of each test organism is smeared on each agar plate, which is then incubated at 37° C. overnight. The lowest concentration of the test compound which causes a complete growth inhibition of the test organism was determined and taken as the MIC (minimal inhibitory concentration) against the same organism.
(2) Staphylococcus aureus 1840
(In agar dilution, organisms are placed on agar that contains the substance at set levels.)

Data set [2] relates to Pseudomonas aeruginosa P 9. Put plainly: MIC by agar dilution method (Trypticase soy agar), Pseudomonas aeruginosa P 9. To be noted: P9, (4) Pseudomonas aeruginosa P 9, 37° C. overnight. It counts as cell-based. How it is done:
as §1
(4) Pseudomonas aeruginosa P 9

Data set [3] has as its system Staphylococcus aureus 308 A-1. Put plainly: MIC by agar dilution method (Trypticase soy agar), Staphylococcus aureus 308 A-1. It counts as cell-based. The note with it: 308A1, 37° C. overnight. How it is done:
as §1
(1) Staphylococcus aureus 308 A-1

In data set [4] the test system is Proteus morganii IFO 3168. Put plainly: MIC by agar dilution method (Trypticase soy agar), Proteus morganii IFO 3168. The note with it: Morganella morganii, IFO3168, (3) Proteus morganii IFO 3168, 37° C. overnight. It counts as cell-based. How it is done: as §1
(3) Proteus morganii IFO 3168

Data set [5] in a line: concentration levels in plasma upon rectal administration (suppository), by biological assay. It counts as in vivo, rat (Wistar. To be noted: rectal suppository 50 mg/kg, fasted male Wistar rats. How it is done: Employing the compound (I) prepared in Example 1 mentioned below, the concentration levels in plasma (plasma levels of said compound) upon rectal administration were measured by the procedure described below.
Suppositories containing the product of Example 1 which were prepared according to Example 3 mentioned below were given (50 mg/kg in terms of said product) into the rectum of three male rats No. 1 to 3 (Wistar, body weight of 300 to 400 g) being fasted for 20 hours. The anuses were closed with an adhesive agent, and blood sample were taken from the tail veins after 0.5, 1, 2 and 4 hours to determine quantitatively the plasma levels of the product of Example 1 by means of the biological assay method. As the test microorganisms for the assay, Escherichia coli NIHJ and Proteus rettgeri ATCC 9250 were employed.
A 250 mg portion of finely divided 7β-[2-(5-amino-1,2,4-thiadiazol-3-yl)-(Z)-2-methoxyiminoacetamido]-3- [(6-aminoimidazo[1,2-b]pyridazinium-1-yl)methyl]-3-cephem-4-carboxylate and 4750 mg of Isocacao MO-5 (produced by Kao, Ltd. in Japan) were uniformly sitrred at 40° to 45° C. and cooled to 35° C. under stiring, followed by filling the mixture into a suppository container made of plastics and gradually cooling to obtain a suppository.

As usually defined, the MIC is the lowest concentration found to suppress growth.

For `CO/N=C(\C(=O)N[C@@H]1C(=O)N2C(C(=O)[O-])=C(C[n+]3ccn4nc(N)ccc43)CS[C@H]12)c1nsc(N)n1` [Example 1, 7β-[2-(5-amino-1,2,4-thiadiazol-3-yl)-(Z)-2-methoxyiminoacetamide]-3-[(6-aminoimidazo[1,2-b]pyridazinium-1-yl)methyl]-3-cephem-4-carboxylate], the MIC in data set [1] stood at 0.78 µg/mL (≈ 1.47 µM); in data set [2] it was 0.39 µg/mL (≈ 0.735 µM); in data set [3], 0.39 µg/mL (≈ 0.735 µM); in data set [4], 0.2 µg/mL (≈ 0.377 µM). The “Concentration levels in plasma, 0.5 hr” value in data set [5] (0.5 hr, individual rats: No. 1, No. 2, No. 3, 30 min) is 130 ng/mL and 2400 ng/mL and 5700 ng/mL. Also, the “Concentration levels in plasma, 1 hr” value in data set [5] (1 hr, individual rats: No. 1, No. 2, No. 3, 60 min) was 740 ng/mL and 4200 ng/mL and 5900 ng/mL. In data set [5] (2 hr, individual rats: No. 1, No. 2, No. 3, 120 min), the “Concentration levels in plasma, 2 hr” value was 1700 ng/mL and 4600 ng/mL and 2700 ng/mL. The “Concentration levels in plasma, 4 hr” value in data set [5] (4 hr, individual rats: b116 = No. 1, b117 = No. 2 (No. 3 not tested), 240 min) stood at 2800 ng/mL. The compound further registered a concentration at 4 h in data set [5] (rat, plasma, 50 mg/kg, 4 hr, individual rats: b116 = No. 1, b117 = No. 2 (No. 3 not tested)) of 4300 ng/mL.
For the compound `CCO/N=C(\C(=O)N[C@@H]1C(=O)N2C(C(=O)[O-])=C(C[n+]3ccn4nc(N)ccc43)CS[C@H]12)c1nsc(N)n1` [Example 2, 7β-[2-(5-amino-1,2,4-thiadiazol-3-yl)-(Z)-2-ethoxyiminoacetamido]-3-[(6-aminoimidazo[1,2-b]pyridazinium-1-yl)methyl]-3-cephem-4-carboxylate], the MIC was 0.78 µg/mL (≈ 1.43 µM) in data set [1], 0.78 µg/mL (≈ 1.43 µM) in data set [2], 0.39 µg/mL (≈ 0.716 µM) in data set [3] and 0.39 µg/mL (≈ 0.716 µM) in data set [4].
